Here are results for eleven compounds from patent US20240150322A1, “CDK9 Inhibitors” (Biolexis Therapeutics, Inc., priority 2022, published 2024).

One series concerns the target T1, CDK9/CycT1 (Homo sapiens, UniProt P50750).
T1 construct: purchased SignalChem
Put plainly: ADP-Glo kinase assay. Type of series: biochemical. On the procedure: ADP-Glo assay kit was purchased from Promega and the CDK9/CycT1 protein and PDKtide substrate were purchased from SignalChem. […] The reaction was started by pre-incubating 4 μL of protein (20 nM), 2 μL of substrate (100 μM), and 2 μL of serial diluted drug in 1× assay buffer (50 mM HEPES, 3 mM MgCl2, 3 mM MnCl2, and 1 mM DTT) for 30 minutes. After pre-incubating, 4 μL of ATP (1 μM) was added to each well and incubated for an additional 90 minutes. The ADP-Glo Reagent (10 μL) and Kinase Detection Reagent (20 μL) were added to each well and incubated as recommended by Promega. The reaction was quantified by measuring luminescence and the IC50 was calculated using GraphPad Prism software.

In the next series the test system is C4-2B. Put plainly: 2D CellTiter-Glo cell viability assay. In kind it is cell-based. The settings on record: 72 h. As for the experimental part: (§1) CellTiter-Glo® 2.0 Luminescent cell viability assay reagent was purchased from Promega and 22Rv1, LASCPC-01, C4-2, C4-2B and NCI-H660, DU-145, PC-3 and LNCap cell lines were obtained from ATCC and a clinical core facility at Huntsman Cancer Institute. […] The results of cell viability were obtained and IC50 values were calculated (see Table 5, below) showing sub-micromolar cell killing of these prostate cancer cells.

The subject of another series is C4-2. Put plainly: 2D CellTiter-Glo cell viability assay. Type of series: cell-based, human. The settings on record: Homo sapiens, C4-2, 72 h. As for the experimental part: as §1
The subject of series [1] is RWPE-1 Normal Prostate Cells. Put plainly: LDH-Glo cytotoxicity assay in normal prostate cells. Type of series: cell-based. Particulars: Homo sapiens, 72 hours. On the procedure: (§2) Multiplexing the LDH-Glo Cytotoxicity Assay and CellTiter-Glo 2D Cell Viability Assay. […] Change in toxicity was measured using the LDH-Glo Cytotoxicity Assay by combining 50 μL diluted samples with 50 μL LDH Detection Reagent and recording luminescence after 1 hour incubation. After samples were removed for LDH measurement, an equal volume of CellTiter Glo 2D Reagent was added to the remaining cell suspension and luminescence was recorded after 30-minute incubation period.

Series [2] deals with RWPE-1 Normal Prostate Cells. Put plainly: CellTiter-Glo 2D cell viability assay in normal prostate cells. Type of series: cell-based. On the procedure:
as §2
On the technique in general: ATP-based viability assays read luminescence as a measure of living cells.

A further series relates to 22Rv1. Put plainly: 2D CellTiter-Glo cell viability assay. Type of series: cell-based. The settings on record: Homo sapiens; 22Rv1, 72 hours. As for the experimental part: (§3) CellTiter-Glo® 2.0 Luminescent cell viability assay reagent was purchased from Promega and 22Rv1 and LASCPC-01 cell lines were purchased from ATCC. […] An equal volume of CellTiter-Glo 2D Reagent was added to the cell suspensions and luminescence was recorded after 30-minute incubation period. […] FIG. 2 illustrates cellular antiproliferative efficacy of a benchmark CDK9 inhibitor AD-4573 on six prostate cancer cell lines over various concentrations.
as §1

A further series concerns NCI-H660. Nature of the series: 2D CellTiter-Glo cell viability assay. In kind it is cell-based. Particulars: NCI-H660, 72 hours. On the procedure: as §3, §1
Another series has as its system PC-3. Nature of the series: 2D CellTiter-Glo cell viability assay. The settings on record: Homo sapiens, PC-3, 72 h. Type of series: cell-based. As for the experimental part: as §3, §1
Another series deals with LNCap. Nature of the series: 2D CellTiter-Glo cell viability assay. In kind it is cell-based. Particulars: Homo sapiens, 72 hours. As for the experimental part:
as §3, §1

Another series has as its system LASCPC-01. Put plainly: 2D CellTiter-Glo cell viability assay. Type of series: cell-based. Particulars: 72 h, LASCPC-01, 72 hours. On the procedure: as §3, §1
The next series deals with DU-145. Nature of the series: 2D CellTiter-Glo cell viability assay. In kind it is cell-based. Particulars: Homo sapiens; DU-145, 72 hours. On the procedure:
as §3, §1

T1 sequence (P50750 whole entry): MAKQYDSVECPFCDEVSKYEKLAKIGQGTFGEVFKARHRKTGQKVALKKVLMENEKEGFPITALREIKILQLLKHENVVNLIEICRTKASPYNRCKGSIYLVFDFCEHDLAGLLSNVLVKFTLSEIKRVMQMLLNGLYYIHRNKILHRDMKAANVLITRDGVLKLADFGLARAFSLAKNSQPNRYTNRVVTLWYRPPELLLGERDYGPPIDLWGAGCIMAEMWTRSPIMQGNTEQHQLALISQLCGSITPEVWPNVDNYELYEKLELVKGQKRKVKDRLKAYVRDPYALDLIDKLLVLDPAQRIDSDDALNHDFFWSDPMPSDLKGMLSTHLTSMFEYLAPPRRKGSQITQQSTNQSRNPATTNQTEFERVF
T1 sequence (O60563 whole entry partner): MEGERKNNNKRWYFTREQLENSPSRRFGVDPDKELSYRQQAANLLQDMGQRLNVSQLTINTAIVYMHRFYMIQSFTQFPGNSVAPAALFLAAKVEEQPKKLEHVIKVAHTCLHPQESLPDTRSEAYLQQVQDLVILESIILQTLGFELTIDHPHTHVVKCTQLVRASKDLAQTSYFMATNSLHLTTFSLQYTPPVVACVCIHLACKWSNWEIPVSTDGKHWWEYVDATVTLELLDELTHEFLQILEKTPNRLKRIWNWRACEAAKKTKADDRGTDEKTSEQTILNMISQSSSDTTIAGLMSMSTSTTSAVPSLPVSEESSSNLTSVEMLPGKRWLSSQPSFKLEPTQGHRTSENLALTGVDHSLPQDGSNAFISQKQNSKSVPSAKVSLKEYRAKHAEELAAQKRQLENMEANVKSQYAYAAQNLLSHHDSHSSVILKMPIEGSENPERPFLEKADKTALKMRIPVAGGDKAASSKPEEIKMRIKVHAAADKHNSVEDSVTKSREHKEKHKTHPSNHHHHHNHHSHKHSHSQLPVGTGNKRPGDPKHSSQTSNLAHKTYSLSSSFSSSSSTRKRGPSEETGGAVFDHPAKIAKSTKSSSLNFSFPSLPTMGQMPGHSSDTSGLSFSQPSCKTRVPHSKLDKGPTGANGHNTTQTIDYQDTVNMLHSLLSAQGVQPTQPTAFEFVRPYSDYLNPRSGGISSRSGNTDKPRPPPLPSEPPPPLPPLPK

In the case of `CC(C)c1c2cc(-c3ccnc(N[C@H]4C[C@@H]5CCC4C5)n3)ccc2nn1C` (stereo in doubt) [Compound I-13, N-((1R,2S,4R)-bicyclo[2.2.1]heptan-2-yl)-4-(3-isopropyl-2-methyl-2H-indazol-5-yl)pyrimidin-2-amine], at CDK9/CycT1, the IC50 (in general, the concentration that gives 50% inhibition) was less than 50 nM. Still for that read-out and setting: as for `CC(C)c1c2cc(-c3ccnc(N[C@H]4C[C@@H]5CCC4C5)n3)cnc2nn1C` (stereo in doubt) [Compound I-14, N-((1R,2S,4R)-bicyclo[2.2.1]heptan-2-yl)-4-(3-isopropyl-2-methyl-2H-pyrazolo[3,4-b]pyridin-5-yl)pyrimidin-2-amine], the figure is less than 50 nM. For the compound `CC(=O)N[C@@H]1CCC[C@H](C(=O)Nc2cc(-c3cnn4c3CC(C)(C)C4)c(Cl)cn2)C1` [AZD-4573, reference compound], the half-inhibitory concentration (IC50) with C4-2B stood at 0.398 nM; with C4-2, 0.237 nM; in [1], 151 nM; in [2] (Homo sapiens, RWPE-1 normal prostate cells, 72 hours), 8.4 nM; in the series on 22Rv1, 67.1 nM; in the series on NCI-H660, 0.221 nM. Besides, the IC50 worked out at 400 nM with PC-3, 1150 nM with LNCap, 13.5 nM in the series with LASCPC-01 and 151 nM in the series with DU-145. For the same compound, the “toxicity to normal prostate cells” value in series [2] (RWPE-1) is “highly toxic”.

`CC(C)c1c2cc(-c3ccnc(N[C@@H]4CC[C@H](N)C4)n3)ccc2nn1C` [Compound I-1, (1S,3R)-[3-[4-(3-isopropyl-2-methylindazol-5-yl)pyrimidin-2-yl]aminocyclopentan-1-yl]-1,3-diamine]: at CDK9/CycT1, the IC50 was less than 50 nM. Same read-out and setting: as for `CC(C)c1c2nc(-c3ccnc(N[C@H]4CC[C@H](N)C4)n3)ccc2nn1C` [Compound I-3, (1S,3S)-[3-[4-[3-isopropyl-2-methylpyrazolo[4,3-b]pyridin-5-yl]pyrimidin-2-yl]aminocyclopentan-1-yl]-1,3-diamine], the figure is more than 1000 nM. On the same count and under the same terms, in the case of `CC(C)c1c2cc(-c3ccnc(N[C@H]4CC[C@H](N)C4)n3)cc(F)c2nn1C` [Compound I-4, (1S,3S)-[3-[4-(7-fluoro-3-isopropyl-2-methylindazol-5-yl)pyrimidin-2-yl]aminocyclopentan-1-yl]-1,3-diamine] it was less than 50 nM; in that of `Cn1cc2cc(-c3ccnc(N[C@H]4CC[C@H](N)C4)n3)ccc2n1` [Compound I-6, (1S,3S)-N^1-(4-(2-methyl-2H-indazol-5-yl)pyrimidin-2-yl)cyclopentane-1,3-diamine], less than 50 nM.

For the compound `CC(C)c1[nH]nc2ccc(-c3ccnc(N[C@H]4CC[C@H](N)C4)n3)cc12` [Compound I-7, (1S,3S)-N^1-(4-(3-isopropyl-2H-indazol-5-yl)pyrimidin-2-yl)cyclopentane-1,3-diamine], on CDK9/CycT1, the IC50 is less than 50 nM. For `Cc1[nH]nc2ccc(-c3ccnc(N[C@H]4CC[C@H](N)C4)n3)cc12` [Compound I-9, (1S,3S)-N^1-(4-(3-methyl-2H-indazol-5-yl)pyrimidin-2-yl)cyclopentane-1,3-diamine], on CDK9/CycT1, the IC50 was 50 to 100 nM. On the same count and under the same terms, as for `CC(C)c1c2cc(-c3ccnc(N[C@H]4CC[C@H](N)C4)n3)cnc2nn1C` [Compound I-10, (1S,3S)-N^1-(4-(3-isopropyl-2-methyl-2H-pyrazolo[3,4-b]pyridin-5-yl)pyrimidin-2-yl)cyclopentane-1,3-diamine], the figure is less than 50 nM; as for `CC(C)c1nn(C)c2ncc(-c3ccnc(N[C@H]4CC[C@H](N)C4)n3)cc12` [Compound I-11, (1S,3S)-N^1-(4-(3-isopropyl-1-methyl-1H-pyrazolo[3,4-b]pyridin-5-yl)pyrimidin-2-yl)cyclopentane-1,3-diamine], more than 1000 nM.
